The supplement of paper PMC11208160

Assay: recombinant barcode read abundance after kanamycin selection (control-corrected) (log10(CPM+1)); higher = more efficient recombination; sequences stand for … in AGTGCAGAGAAAATCGGCCAGTTTTCTCTGCCTGCAGTCCGCATGCCGT…AGATTTATGCAGCGGACTGCCTTTCTCCCAAAGTGATAAACCGGACAGTATCATGGACCGGTTTTCCCGGTAATCCGTATTTGCAAGGTTGGTTTCACT; site = the 11-nt target
In short: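 Targets and IS621 bridge RNA target-binding loops were paired in oligos, each with a promoter, a barcode and the J23119-driven first 104 bridge RNA bases. A vector carrying the remaining 73 bp and a T7-inducible recombinase received these by Gibson cloning, and the pool was co-electroporated into E. coli with a donor plasmid. Duplicate plates contained chloramphenicol/ampicillin LB agar (control) or chloramphenicol/ampicillin/kanamycin with 0.1 mM IPTG. Recombination efficiency comes from averaged, control-corrected counts per million of recombinant-junction barcodes, reported as log10(CPM+1).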
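Further: IS621 recombinase and bridge RNA in Escherichia coli cells.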

Sequence	recombinant barcode read abundance (log10)
TCAAGACCTTGGGTTCTAACCTGTTGCCG (site TCAAGACCTCG)	0.461
TCACAGGCTTGGGTTCTAACCTGTTGCCG (site TCACAGGCTCG)	0.361
TCACAGGCTTGGGTTCTAACCTGTTGCCG (site TCTCAGGCTCG)	0.377
TCACGGACTTGGGTTCTAACCTGTTGCCT (site TCACGGACTAG)	1.1
TCACGGACTTGGGTTCTAACCTGTTGCCT (site TCCCGGACTAG)	0.101
TCACGGACTTGGGTTCTAACCTGTTGCCT (site TCGCGGACTAG)	0.0352
TCACGGACTTGGGTTCTAACCTGTTGCCT (site TCTCGGACTAG)	0.101
TCACGTCCTTGGGTTCTAACCTGTTGCGT (site TCACGTCCTAA)	0.0145
TCACGTCCTTGGGTTCTAACCTGTTGCGT (site TCACGTCCTAC)	1.3
TCACGTCCTTGGGTTCTAACCTGTTGCGT (site TCACGTCCTAG)	0.0596
TCACGTCCTTGGGTTCTAACCTGTTGCGT (site TCACGTCCTAT)	0.295
TCACGTCCTTGGGTTCTAACCTGTTGCTT (site TCACGTCCTAA)	0.137
TCACGTCCTTGGGTTCTAACCTGTTGCTT (site TCACGTCCTAC)	0.0167
TCACGTCCTTGGGTTCTAACCTGTTGCTT (site TCACGTCCTAG)	0.262
TCACGTCCTTGGGTTCTAACCTGTTGCTT (site TCACGTCCTAT)	0.145
TCAGAATCTTGGGTTCTAACCTGTTGCCT (site TCAGAATCTAG)	0.667
TCAGAATCTTGGGTTCTAACCTGTTGCCT (site TCAGCATCTAG)	0
TCAGAATCTTGGGTTCTAACCTGTTGCCT (site TCAGGATCTAG)	0.371
TCAGAATCTTGGGTTCTAACCTGTTGCCT (site TCAGTATCTAG)	0.0618
TCAGGGACTTGGGTTCTAACCTGTTGCAG (site TCAGGGACTCT)	2.45
TCAGGGACTTGGGTTCTAACCTGTTGCAG (site TCGGGGACTCG)	0.375
TCAGGTACTTGGGTTCTAACCTGTTGCCT (site ACAGGTACTAG)	0.0983

Sequence	recombinant barcode read abundance (log10)
TCAGGTACTTGGGTTCTAACCTGTTGCCT (site CCAGGTACTAG)	0.0713
TCAGGTACTTGGGTTCTAACCTGTTGCCT (site GCAGGTACTAG)	0.0652
TCAGGTACTTGGGTTCTAACCTGTTGCCT (site TCAGGTACTAG)	0.163
TCAGTATCTTGGGTTCTAACCTGTTGCCT (site TCAGAATCTAG)	0.145
TCAGTATCTTGGGTTCTAACCTGTTGCCT (site TCAGCATCTAG)	0.533
TCAGTATCTTGGGTTCTAACCTGTTGCCT (site TCAGGATCTAG)	0.107
TCAGTATCTTGGGTTCTAACCTGTTGCCT (site TCAGTATCTAG)	1.4
TCATCTCCTTGGGTTCTAACCTGTTGCCT (site ACATCTCCTAG)	0.188
TCATCTCCTTGGGTTCTAACCTGTTGCCT (site CCATCTCCTAG)	0.0972
TCATCTCCTTGGGTTCTAACCTGTTGCCT (site GCATCTCCTAG)	0.0477
TCATCTCCTTGGGTTCTAACCTGTTGCCT (site TCATCTCCTAG)	0.092
TCATGGGCTTGGGTTCTAACCTGTTGCAG (site AGGGTTCCTAA)	0.457
TCATGGGCTTGGGTTCTAACCTGTTGCAG (site TCATGGGCTCT)	1.92
TCCAAAGCTTGGGTTCTAACCTGTTGCTA (site TCCAAAGCTTA)	0.249
TCCAAAGCTTGGGTTCTAACCTGTTGCTA (site TCCCAAGCTTA)	0.141
TCCAAAGCTTGGGTTCTAACCTGTTGCTA (site TCCGAAGCTTA)	0.294
TCCAAAGCTTGGGTTCTAACCTGTTGCTA (site TCCTAAGCTTA)	0.251
TCCAACACTTGGGTTCTAACCTGTTGCGG (site TCCAAACCTCC)	0.00935
TCCAACACTTGGGTTCTAACCTGTTGCGG (site TCCAACACTCC)	1.31
TCCAACCCTTGGGTTCTAACCTGTTGCGG (site TCAAACCCTCC)	0.0107
TCCAACCCTTGGGTTCTAACCTGTTGCGG (site TCCAACCCTCC)	1.78
TCCAACCCTTGGGTTCTAACCTGTTGCGG (site TCGAACCCTCC)	0.108

Sequence	recombinant barcode read abundance (log10)
TCCAACCCTTGGGTTCTAACCTGTTGCGG (site TCTAACCCTCC)	0.3
TCCAAGACTTGGGTTCTAACCTGTTGCAG (site ACCAAGACTCG)	0.00865
TCCAAGACTTGGGTTCTAACCTGTTGCAG (site TCCAAGACTCT)	1.72
TCCAAGCCTTGGGTTCTAACCTGTTGCAG (site TCCAAACCTCT)	0.694
TCCAAGCCTTGGGTTCTAACCTGTTGCAG (site TCCAACCCTCT)	0.0251
TCCAAGCCTTGGGTTCTAACCTGTTGCAG (site TCCAAGCCTCT)	0.747
TCCAAGCCTTGGGTTCTAACCTGTTGCAG (site TCCAATCCTCT)	0.39
TCCAATCCTTGGGTTCTAACCTGTTGCAG (site TCCAAACCTCT)	0.114
TCCAATCCTTGGGTTCTAACCTGTTGCAG (site TCCAACCCTCT)	0.0551
TCCAATCCTTGGGTTCTAACCTGTTGCAG (site TCCAAGCCTCT)	0.167
TCCAATCCTTGGGTTCTAACCTGTTGCAG (site TCCAATCCTCT)	0.381
TCCACACCTTGGGTTCTAACCTGTTGCCT (site TCCACAACTAG)	0.122
TCCACACCTTGGGTTCTAACCTGTTGCCT (site TCCACACCTAG)	0.63
TCCACACCTTGGGTTCTAACCTGTTGCCT (site TCCACAGCTAG)	0.0788
TCCACACCTTGGGTTCTAACCTGTTGCCT (site TCCACATCTAG)	0.0345
TCCACAGCTTGGGTTCTAACCTGTTGCCT (site TCCACAACTAG)	0
TCCACAGCTTGGGTTCTAACCTGTTGCCT (site TCCACACCTAG)	0.212
TCCACAGCTTGGGTTCTAACCTGTTGCCT (site TCCACAGCTAG)	0.784
TCCACAGCTTGGGTTCTAACCTGTTGCCT (site TCCACATCTAG)	0
TCCAGCACTTGGGTTCTAACCTGTTGCCT (site TCCAGCACTAG)	0.412
TCCAGCACTTGGGTTCTAACCTGTTGCCT (site TCTGGCACTAG)	0
TCCAGTACTTGGGTTCTAACCTGTTGCTT (site TCCAGTACTAA)	0.0786

Sequence	recombinant barcode read abundance (log10)
TCCAGTACTTGGGTTCTAACCTGTTGCTT (site TCCGGTACTAA)	0.0788
TCCATAACTTGGGTTCTAACCTGTTGCCT (site GGGGCGTCTCA)	0.0285
TCCATAACTTGGGTTCTAACCTGTTGCCT (site TCCATAACTAG)	0.14
TCCATCCCTTGGGTTCTAACCTGTTGCCT (site TCAATCCCTAG)	0.00792
TCCATCCCTTGGGTTCTAACCTGTTGCCT (site TCCATCCCTAG)	0.613
TCCATCCCTTGGGTTCTAACCTGTTGCCT (site TCGATCCCTAG)	0.0154
TCCATCCCTTGGGTTCTAACCTGTTGCCT (site TCTATCCCTAG)	0.116
TCCCACTCTTGGGTTCTAACCTGTTGCCT (site TCACACTCTAG)	0.158
TCCCACTCTTGGGTTCTAACCTGTTGCCT (site TCCCACTCTAG)	1.56
TCCCACTCTTGGGTTCTAACCTGTTGCCT (site TCGCACTCTAG)	0.0564
TCCCACTCTTGGGTTCTAACCTGTTGCCT (site TCTCACTCTAG)	0.0682
TCCCAGTCTTGGGTTCTAACCTGTTGCTG (site TCCCAGTCTCA)	0.635
TCCCAGTCTTGGGTTCTAACCTGTTGCTG (site TCTCAGTCTCC)	0.0317
TCCCATACTTGGGTTCTAACCTGTTGCAT (site AGTGGACCTGG)	0.2
TCCCATACTTGGGTTCTAACCTGTTGCAT (site TCCCATACTAT)	0.982
TCCCATTCTTGGGTTCTAACCTGTTGCCT (site TCCCATACTAG)	0.197
TCCCATTCTTGGGTTCTAACCTGTTGCCT (site TCCCATCCTAG)	0.03
TCCCATTCTTGGGTTCTAACCTGTTGCCT (site TCCCATGCTAG)	0.0488
TCCCATTCTTGGGTTCTAACCTGTTGCCT (site TCCCATTCTAG)	0.115
TCCCGAGCTTGGGTTCTAACCTGTTGCCT (site TCCCGAACTAG)	0.435
